Test results published in patent US20240368159A1, “HPK1 DEGRADERS, COMPOSITIONS COMPRISING THE HPK1 DEGRADER, AND METHODS OF USING THE SAME” (BIOFRONT LTD, priority 2021, published 2024).

Assays:
HPK1 protein [1] = target: T1, HPK1 protein (Homo sapiens, UniProt Q92918); experiment: HPK1 enzyme inhibition assay (ADP-Glo); type: biochemical; conditions: MBP substrate, ATP, ADP-Glo readout
T1 construct: purchased Signal Chem M23-11G-10
T1 sequence (Q92918 1-346 limits assumed): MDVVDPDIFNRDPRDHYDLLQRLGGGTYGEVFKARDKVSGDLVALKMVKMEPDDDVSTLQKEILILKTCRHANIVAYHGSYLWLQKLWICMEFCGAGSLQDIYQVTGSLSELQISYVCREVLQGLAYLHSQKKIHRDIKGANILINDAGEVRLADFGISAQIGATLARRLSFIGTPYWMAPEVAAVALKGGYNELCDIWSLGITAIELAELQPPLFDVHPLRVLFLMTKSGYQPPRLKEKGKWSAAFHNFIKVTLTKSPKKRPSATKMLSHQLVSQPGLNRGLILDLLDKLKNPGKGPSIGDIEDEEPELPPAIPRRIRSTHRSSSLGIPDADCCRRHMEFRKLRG
How it was run: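 Recombinant human HPK1 preincubated with compound 60 min at 25 °C, then reaction with MBP (0.2 ug/ul, 2× stock) and ATP (20 μM, 2× stock) 60 min at 25 °C. ADP formed detected by ADP-Glo after ATP depletion and conversion to ATP; IC50 calculated from signal.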

HPK1 p-SLP-76 = HPK1 p-SLP-76 inhibition assay in human PBMC (HTRF); type: cell-based; conditions: 6 h compound, anti-CD3 stimulation 20 min
How it was run: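 Human PBMC starved overnight in 0.5% FBS, treated with compound 6 h at 37° C, then stimulated with anti-CD3 (10 ug/mL final) for 20 min. Lysates analysed for phospho-SLP76 by HTRF after overnight detection-antibody incubation at 25° C.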

[2] = test system: IL-2 production in primary mouse CD3+ T cells; experiment: Cytokine measurement: IL-2 production in mouse CD3+ T cells (ELISA); type: cell-based; conditions: T-cell, plate bound anti-CD3, 40 hrs; for fold induction at 1 µM: 1 uM compound, read-out: IL-2 production Fold change (1 uM); for fold induction at 3 µM: 3 uM compound, read-out: IL-2 production Fold change (3 uM)
Procedure: Anti-CD3 Ab was used to provide signal 1 to stimulate mouse CD3+ T cells. Effect of compound stimulation on T cells was measure by IL2 ELISA. Briefly, anti-CD3 Ab was coated onto plates overnight. Isolated T cells from mouse splenocytes were incubated with plate bound CD3 in the presence and absence of compound for 40 hrs. After incubation, the supernatant was collected and IL2 level in the supernatant was determined by mouse IL2 ELISA kit.

HPK1 protein [3] = target: T2, HPK1 protein (Mus musculus, UniProt P70218); experiment: HPK1 protein degradation in mouse pan T cell (western blot); type: cell-based; conditions: 18 h incubation
T2 construct: the CD3+ T cell population was isolated from spleenocytes of mice; endogenous in cells; host or cells: primary mouse splenic CD3+ (pan) T cells
T2 sequence (P70218 1-827): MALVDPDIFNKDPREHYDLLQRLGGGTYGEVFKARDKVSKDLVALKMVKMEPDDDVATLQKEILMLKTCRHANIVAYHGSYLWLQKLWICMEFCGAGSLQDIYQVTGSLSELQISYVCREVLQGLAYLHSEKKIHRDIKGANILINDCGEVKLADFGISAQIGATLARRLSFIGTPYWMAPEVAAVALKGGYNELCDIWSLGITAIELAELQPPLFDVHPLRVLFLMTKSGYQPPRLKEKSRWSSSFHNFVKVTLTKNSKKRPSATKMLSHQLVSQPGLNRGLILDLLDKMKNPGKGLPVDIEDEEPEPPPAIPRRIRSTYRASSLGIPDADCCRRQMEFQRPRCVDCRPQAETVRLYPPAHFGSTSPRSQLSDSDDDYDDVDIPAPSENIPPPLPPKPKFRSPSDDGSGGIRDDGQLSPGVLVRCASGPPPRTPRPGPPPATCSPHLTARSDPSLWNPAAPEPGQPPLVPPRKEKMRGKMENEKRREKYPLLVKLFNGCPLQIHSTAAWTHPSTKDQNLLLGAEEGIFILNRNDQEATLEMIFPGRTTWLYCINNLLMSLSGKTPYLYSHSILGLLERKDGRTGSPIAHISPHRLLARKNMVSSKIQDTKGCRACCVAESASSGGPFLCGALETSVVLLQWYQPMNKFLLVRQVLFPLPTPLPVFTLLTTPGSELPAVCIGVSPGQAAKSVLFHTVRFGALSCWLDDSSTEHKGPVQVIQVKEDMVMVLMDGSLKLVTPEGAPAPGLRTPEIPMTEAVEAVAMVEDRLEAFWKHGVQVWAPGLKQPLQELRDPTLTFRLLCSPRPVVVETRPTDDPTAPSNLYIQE
How it was run: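 CD3+ pan T cells were isolated from mouse splenocytes and incubated 18 h with a range of compound concentrations. Lysates were normalised by BCA and run on SDS-PAGE. HPK1 was detected by western blot with an anti-human HPK1 polyclonal antibody, with β-actin as loading control.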

HPK1 protein [4] = target: T3, HPK1 protein (Homo sapiens, UniProt Q92918); experiment: HPK1 protein degradation in human PBMC (western blot); type: cell-based; conditions: 18 h incubation
T3 construct: Frozen human PBMC were purchased from Shanghai OribioTech; host or cells: human PBMC
Procedure: HPK1 protein degradation in human PBMC: Frozen human PBMC were purchased from Shanghai OribioTech and recovered with culture medium (RMPI1640) prior to use. The cells were then incubated with a variety of concentrations of compound. After incubation for 18 h, the cells were collected and lysed. The protein concentration was determined by BCA protein assay kit from Thermo (23227). The HPK1 protein level was determined by western blots, using anti-human HPK1 polyclonal antibody from CST (4472S). Proteins were loaded into each well of the pre-casting gels and subjected to electrophoretic separation by SDS-PAGE. The protein resolved by SDS-PAGE were transferred to PVDF, blocked by 5% skim milk, and probed with anti-human HPK1 antibody or β-actin antibody from CST (3700S), using standard western blotting procedure.
T3 sequence (Q92918 whole entry): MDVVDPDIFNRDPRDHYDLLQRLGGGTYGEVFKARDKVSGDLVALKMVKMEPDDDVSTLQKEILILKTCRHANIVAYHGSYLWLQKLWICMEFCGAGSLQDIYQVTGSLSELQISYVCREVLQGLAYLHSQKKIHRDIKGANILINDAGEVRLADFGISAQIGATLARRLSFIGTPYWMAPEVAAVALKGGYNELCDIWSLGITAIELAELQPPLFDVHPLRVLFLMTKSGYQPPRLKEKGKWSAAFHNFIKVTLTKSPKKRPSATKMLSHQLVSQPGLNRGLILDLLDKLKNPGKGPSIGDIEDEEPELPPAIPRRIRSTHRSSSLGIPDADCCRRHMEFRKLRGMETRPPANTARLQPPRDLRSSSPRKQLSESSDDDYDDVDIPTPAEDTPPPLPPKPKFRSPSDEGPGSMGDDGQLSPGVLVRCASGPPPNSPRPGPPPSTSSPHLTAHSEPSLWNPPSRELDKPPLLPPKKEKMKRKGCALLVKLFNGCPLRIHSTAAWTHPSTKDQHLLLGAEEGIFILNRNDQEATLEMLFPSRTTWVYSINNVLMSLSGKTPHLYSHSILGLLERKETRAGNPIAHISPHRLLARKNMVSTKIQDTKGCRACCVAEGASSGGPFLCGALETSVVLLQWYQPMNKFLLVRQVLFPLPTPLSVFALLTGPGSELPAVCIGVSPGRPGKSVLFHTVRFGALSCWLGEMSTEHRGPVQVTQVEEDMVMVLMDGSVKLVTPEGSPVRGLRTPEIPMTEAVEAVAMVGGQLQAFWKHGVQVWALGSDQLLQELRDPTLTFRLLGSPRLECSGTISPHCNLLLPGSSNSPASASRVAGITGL

| Structure (SMILES) | IC50 (HPK1 protein [1]) [nM] | IC50 (HPK1 p-SLP-76) [nM] | Dmax (HPK1 protein [3]) [%] | Dmax (HPK1 protein [4]) [%] | fold induction at 1 µM [2] | fold induction at 3 µM [2] |
| --- | --- | --- | --- | --- | --- | --- |
| O=C1CCC(Nc2ccc(N3CCN(CCCN4CCN(c5cccc(-c6cnc7[nH]cc(C8CC8)c7c6Cl)c5)C(=O)C4)CC3)c(F)c2)C(=O)N1 (stereo not shown) [Example 79, 3-((4-(4-(3-(4-(3-(4-chloro-3-cyclopropyl-1H-pyrrolo[2,3-b]pyridin-5-yl)phenyl)-3-oxopiperazin-1-yl)propyl)piperazin-1-yl)-3-fluorophenyl)amino) piperidine-2,6-dione] | ≤ 10 | ≤ 300 | 97 |  | 2.6 | < 0.5 |
| CCc1c[nH]c2ncc(-c3cccc(N4CCN(CCCOC5CCN(c6ccc7c(c6)C(=O)N(C6CCC(=O)NC6=O)C7=O)CC5)CC4=O)c3)c(Cl)c12 (stereo not shown) [Example 35, 5-(4-(3-(4-(3-(4-chloro-3-ethyl-1H-pyrrolo[2,3-b]pyridin-5-yl)phenyl)-3-oxopiperazin-1-yl)propoxy)piperidin-1-yl)-2-(2,6-dioxopiperidin-3-yl)isoindoline-1,3-dione] | 10 to 100 | 300 to 3000 | 95 | 90 |  |  |
| O=C1CCC(N2C(=O)c3ccc(N4CCC(COC(=O)N5CCN(c6cccc(-c7cnc8[nH]cc(C9CC9)c8c7Cl)c6)C(=O)C5)CC4)cc3C2=O)C(=O)N1 (stereo not shown) [Example 88] | 10 to 100 | > 10000 |  |  | 2.3 | 2.4 |
| O=C1CCC(N2Cc3cc(N4CCN(CCCN5CCN(c6cccc(-c7cnc8[nH]cc(C9CC9)c8c7Cl)c6)C(=O)C5)CC4)ccc3C2=O)C(=O)N1 (stereo not shown) [Example 63, 3-(5-(4-(3-(4-(3-(4-chloro-3-cyclopropyl-1H-pyrrolo[2,3-b]pyridin-5-yl)phenyl)-3-oxopiperazin-1-yl)propyl)piperazin-1-yl)-1-oxoisoindolin-2-yl)piperidine-2,6-dione] | ≤ 10 | ≤ 300 |  | 90 | 2.1 | 2 |
| O=C1CCC(c2ccc(C3CCN(CCCS(=O)(=O)N4CCN(c5cccc(-c6cnc7[nH]cc(C8CC8)c7c6Cl)c5)C(=O)C4)CC3)cc2)C(=O)N1 (stereo not shown) [Example 102, 3-(4-(1-(3-((4-(3-(4-chloro-3-cyclopropyl-1H-pyrrolo[2,3-b]pyridin-5-yl)phenyl)-3-oxopiperazin-1-yl)sulfonyl)propyl)piperidin-4-yl)phenyl)piperidine-2,6-dione] | ≤ 10 | 300 to 3000 |  |  | 2.9 | 2.6 |
| O=C1CCC(N2Cc3cc(C4=CCN(CCCN5CCN(c6cccc(-c7cnc8[nH]cc(C9CC9)c8c7Cl)c6)C(=O)C5)CC4)ccc3C2=O)C(=O)N1 (stereo not shown) [Example 56, 3-(5-(1-(3-(4-(3-(4-chloro-3-cyclopropyl-1H-pyrrolo[2,3-b]pyridin-5-yl)phenyl)-3-oxopiperazin-1-yl)propyl)-1,2,3,6-tetrahydropyridin-4-yl)-1-oxoisoindolin-2-yl)piperidine-2,6-dione] | ≤ 10 | 300 to 3000 | 95 | 98 |  |  |
| O=C1CCC(Nc2ccc(C3CCN(CCCN4CCN(c5cccc(-c6cnc7[nH]cc(C8CC8)c7c6Cl)c5)C(=O)C4)CC3)cc2)C(=O)N1 (stereo not shown) [Example 78, 3-((4-(1-(3-(4-(3-(4-chloro-3-cyclopropyl-1H-pyrrolo[2,3-b]pyridin-5-yl)phenyl)-3-oxopiperazin-1-yl)propyl)piperidin-4-yl)phenyl)amino)piperidine-2,6-dione] | ≤ 10 | 300 to 3000 | 88 | 90 |  |  |
| O=C1CCC(N2C(=O)c3ccc(OCCC4CN(C(=O)N5CCN(c6cccc(-c7cnc8[nH]cc(C9CC9)c8c7Cl)c6)C(=O)C5)C4)cc3C2=O)C(=O)N1 (stereo not shown) [Example 95, 5-(2-(1-(4-(3-(4-chloro-3-cyclopropyl-1H-pyrrolo[2,3-b]pyridin-5-yl)phenyl)-3-oxopiperazine-1-carbonyl)azetidin-3-yl)ethoxy)-2-(2,6-dioxopiperidin-3-yl)isoindoline-1,3-dione] | 10 to 100 |  |  |  | 1.8 | 2.7 |

Further lines, with some results ahead:

| IC50 (HPK1 protein [1]) [nM] | IC50 (HPK1 p-SLP-76) [nM] | Dmax (HPK1 protein [3]) [%] | Dmax (HPK1 protein [4]) [%] | Structure (SMILES) | fold induction at 1 µM [2] | fold induction at 3 µM [2] |
| --- | --- | --- | --- | --- | --- | --- |
| ≤ 10 | ≤ 300 |  |  | O=C1CCC(N2Cc3cc(N4CCN(CCCS(=O)(=O)N5CCN(c6cccc(-c7cnc8[nH]cc(C9CC9)c8c7Cl)c6)C(=O)C5)CC4)ccc3C2=O)C(=O)N1 (stereo not shown) [Example 103, 3-(5-(4-(3-((4-(3-(4-chloro-3-cyclopropyl-1H-pyrrolo[2,3-b]pyridin-5-yl)phenyl)-3-oxopiperazin-1-yl)sulfonyl)propyl)piperazin-1-yl)-1-oxoisoindolin-2-yl)piperidine-2,6-dione] | 2.1 | 2.8 |
| 10 to 100 | 300 to 3000 | 96 | 96 | CCc1c[nH]c2ncc(-c3cccc(N4CCN(CCCN5CCN(c6cc7c(cc6F)C(=O)N(C6CCC(=O)NC6=O)C7=O)CC5)CC4=O)c3)c(Cl)c12 (stereo not shown) [Example 25] |  |  |
| 100 to 1000 | 300 to 3000 | 95 | 94 | O=C1CCC(N2C(=O)c3cc(F)c(N4CCN(CCCN5CCN(c6cccc(-c7cnc8[nH]cc(C9CC9)c8c7Cl)c6)C(=O)C5)CC4)cc3C2=O)C(=O)N1 (stereo not shown) [Example 43] |  |  |
| 10 to 100 | 300 to 3000 | 90 | 98 | CCc1c[nH]c2ncc(-c3cccc(N4CCN(CCCN5CCC(c6ccc7c(N8CCC(=O)NC8=O)cccc7c6)CC5)CC4=O)c3)c(Cl)c12 [Example 58, 1-(6-(1-(3-(4-(3-(4-chloro-3-ethyl-1H-pyrrolo[2,3-b]pyridin-5-yl)phenyl)-3-oxopiperazin-1-yl)propyl)piperidin-4-yl)naphthalen-1-yl)dihydropyrimidine-2,4 (1H,3H)-dione] | 2.5 | 2 |
| ≤ 10 | ≤ 300 | 80 | 96 | CCc1c[nH]c2ncc(-c3cccc(N4CCN(C(=O)COC5CCN(c6ccc7c(c6)C(=O)N(C6CCC(=O)NC6=O)C7=O)CC5)CC4=O)c3)c(Cl)c12 (stereo not shown) [Example 16, 5-(4-(2-(4-(3-(4-chloro-3-ethyl-1H-pyrrolo[2,3-b]pyridin-5-yl)phenyl)-3-oxopiperazin-1-yl)-2-oxoethoxy)piperidin-1-yl)-2-(2,6-dioxopiperidin-3-yl)isoindoline-1,3-dione] |  |  |
